# Experimental data from patent US20100047839A1, “LATENT FLUORIMETRIC INDICATOR FOR BIOLOGICAL ANALYTES DETERMINATION AND THE PREPARATION METHOD THEREOF” (NATIONAL TAIPEI UNIVERSITY OF TECHNOLOGY, priority 2008, published 2010).
# Assays:
# Format in all cases: biochemical
# Details in all cases: BQC 10 μM, λex 500 nm, λem 595 nm, 4 h, 37° C., pH 7.6, baseline subtracted
# DT Diaphorase [1] = target: T1, DT Diaphorase (Homo sapiens, UniProt P15559); assay: Oxygen-insensitive DTD-coupling enzyme assay for ethanol determination (alcohol dehydrogenase, NAD+, DT Diaphorase)
# T1 sequence (P15559 whole entry, species assumed): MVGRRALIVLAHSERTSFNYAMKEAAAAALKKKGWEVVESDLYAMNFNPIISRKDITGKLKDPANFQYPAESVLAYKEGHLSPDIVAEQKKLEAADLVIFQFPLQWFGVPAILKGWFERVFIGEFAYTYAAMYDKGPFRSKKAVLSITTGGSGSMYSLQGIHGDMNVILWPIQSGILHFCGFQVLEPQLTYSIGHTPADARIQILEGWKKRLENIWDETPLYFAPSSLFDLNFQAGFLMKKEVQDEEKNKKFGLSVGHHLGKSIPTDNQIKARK
# Description: (§1) All the fluorimetric measurements carried out with an excitation wavelength of λex=500 nm and an emission wavelength of λem=595 nm. The solutions containing BQC (10 μM), DTD (1 unit), and the corresponding dehydrogenase (1 to 10 unit), NAD^+ (10 μM), and ethanol, 3-hydroxybutrate or glucose-6-phosphate (0 to 10 μM) in Tris-HCl buffer with a final volume of 1 mL were incubated for 4 h at 37° C. The fluorimetric intensity of each solution after subtracting the baseline intensity ([analytes]=0) was plotted versus the analytes concentration.
# All different ethanol concentration analytes are tabulated in the table below, and the environment of assay is maintained in pH 7.6 at 37° C.
# DT Diaphorase [2] = target: T1, DT Diaphorase; assay: Oxygen-insensitive DTD-coupling enzyme assay for 3-hydroxybutyrate determination (3-hydroxybutyrate dehydrogenase, NAD+, DT Diaphorase)
# Description: as §1
# All different 3-hydroxybutyrate concentration analytes are tabulated in the table below, and the environment of assay is maintained in pH 7.6 at 37° C.
# DT Diaphorase [3] = target: T1, DT Diaphorase; assay: Oxygen-insensitive DTD-coupling enzyme assay for glucose-6-phosphate determination (glucose-6-phosphate dehydrogenase, phosphoglucomutase, NAD+, DT Diaphorase)
# Description: as §1
# All different glucose-6-phophate concentration analytes are tabulated in the table below, and the environment of assay is maintained in pH 7.6 at 37° C.
smiles,measurement,setting,value
CC1=C(C)C(=O)C(C(C)(C)CC(=O)N(C)CCN(C)C(=O)Oc2ccc3c(C#N)c(-c4nc5ccccc5s4)c(=O)oc3c2)=C(C)C1=O [BQC],relative fluorescence intensity,DT Diaphorase [1]; ethanol 0.2 μM,10.79
same,relative fluorescence intensity,DT Diaphorase [1]; ethanol 0.6 μM,26.18
same,relative fluorescence intensity,DT Diaphorase [1]; ethanol 0.8 μM,35.23
same,relative fluorescence intensity,DT Diaphorase [1]; ethanol 1 μM,39.42
same,relative fluorescence intensity,DT Diaphorase [1]; ethanol 2 μM,77.06
same,relative fluorescence intensity,DT Diaphorase [2]; 3-hydroxybutyrate 1 μM,16.17
same,relative fluorescence intensity,DT Diaphorase [2]; 3-hydroxybutyrate 2 μM,47.59
same,relative fluorescence intensity,DT Diaphorase [2]; 3-hydroxybutyrate 4 μM,83.74
same,relative fluorescence intensity,DT Diaphorase [2]; 3-hydroxybutyrate 6 μM,126.26
same,relative fluorescence intensity,DT Diaphorase [2]; 3-hydroxybutyrate 8 μM,144.93
same,relative fluorescence intensity,DT Diaphorase [2]; 3-hydroxybutyrate 10 μM,198.56
same,relative fluorescence intensity,DT Diaphorase [3]; glucose-6-phosphate 1 μM,17.02
same,relative fluorescence intensity,DT Diaphorase [3]; glucose-6-phosphate 2 μM,36.84
same,relative fluorescence intensity,DT Diaphorase [3]; glucose-6-phosphate 4 μM,76.41
same,relative fluorescence intensity,DT Diaphorase [3]; glucose-6-phosphate 6 μM,144.45
same,relative fluorescence intensity,DT Diaphorase [3]; glucose-6-phosphate 8 μM,175.2
same,relative fluorescence intensity,DT Diaphorase [3]; glucose-6-phosphate 9 μM,190.32
same,relative fluorescence intensity,DT Diaphorase [3]; glucose-6-phosphate 10 μM,207.94
